Data published in patent publication US8278322.
Where two headings read alike, the source gives them in different places.

**Q.** For `C=C1CC(C)(C)COC(=O)N[C@@H](C2CCCCC2)C(=O)N2C[C@@H](C[C@H]2C(=O)OCC)Oc2nccc3cc(OC)c1cc23`, which ring closure, yield of all isomers (from C=CCC(C)(C)COC(=O)N[C@H](C(=O)N1C[C@H](Oc2nccc3cc(OC)c(Br)cc23)C[C@H]1C(=O)OCC)C1CCCCC1, cc_pd bond, PdCl2(dppf), ethanol, 66.4 mM, 90.0 °C, 19.0 h) is on record?
**A.** Its ring closure, yield of all isomers is 35.5%.

**Q.** For `CCOC(=O)[C@@H]1C[C@@H]2CN1C(=O)[C@H](C1CCCC1)NC(=O)OCC(C)(C)C/C=C/c1ccc3ccnc(c3c1)O2`, which ring closure, yield of all isomers (from C=CCC(C)(C)COC(=O)N[C@H](C(=O)N1C[C@H](Oc2nccc3ccc(C=C)cc23)C[C@H]1C(=O)OCC)C1CCCC1, rcm bond, Zhan 1B, DCE, 2.88 mM, 70.0 °C, 3.0 h) is on record?
**A.** Its ring closure, yield of all isomers is 83%.

**Q.** For `CCOC(=O)[C@@H]1C[C@@H]2CN1C(=O)[C@H](C(C)(C)C)NC(=O)OCCCC#Cc1ccc3ccnc(c3c1)O2`, which ring closure, yield of all isomers (from CCOC(=O)[C@@H]1C[C@@H](Oc2nccc3ccc(C#CCCCOC(=O)N[C@H](C(=O)O)C(C)(C)C)cc23)CN1C(=O)OC(C)(C)C, amide bond, HATU, DCM, 3.7 mM, 20.0 h, 2 steps) is on record?
**A.** Its ring closure, yield of all isomers is 14.5%.

**Q.** With `CCCC[C@@H]1NC(=O)OCCCC=Cc2ccc3ccnc(c3c2)O[C@@H]2C[C@@H](C(=O)OCC)N(C2)C1=O` as the compound, how does the ring closure, yield of all isomers (from C=CCCCOC(=O)N[C@@H](CCCC)C(=O)N1C[C@H](Oc2nccc3ccc(C=C)cc23)C[C@H]1C(=O)OCC, rcm bond, Zhan Catalyst I (RC-301), dichloro(5-chloro-2-isopropoxybenzylidene)(1,3-dimesitylimidazolidin-2-ylidene)ruthenium, 1,2-dichloroethane, 7.4 mM, 80.0 °C, 2.0 h) read?
**A.** The ring closure, yield of all isomers was 63.5%.
